From ChEMBL document CHEMBL4190352, “Continued SAR exploration of 1,2,4-thiadiazole-containing scaffolds in the design of free fatty acid receptor 1 (GPR40) agonists” (Eur J Med Chem, 2017)
Activity calls are given as the source filed them. The calls are words filed in the database; no cut-off is given here.

Tests used:
Assay type in all cases: functional, cell-based
[1] = biological target: T1, Free fatty acid receptor 1 (Homo sapiens, UniProt O14842); experiment: Agonist activity at human GPR40/FFA1 expressed in CHO cells assessed as increase in calcium flux at 1 uM by Fluo-8 AM dye based FLIPR method relative to 10 uM GW9508
T1 sequence (O14842 whole entry): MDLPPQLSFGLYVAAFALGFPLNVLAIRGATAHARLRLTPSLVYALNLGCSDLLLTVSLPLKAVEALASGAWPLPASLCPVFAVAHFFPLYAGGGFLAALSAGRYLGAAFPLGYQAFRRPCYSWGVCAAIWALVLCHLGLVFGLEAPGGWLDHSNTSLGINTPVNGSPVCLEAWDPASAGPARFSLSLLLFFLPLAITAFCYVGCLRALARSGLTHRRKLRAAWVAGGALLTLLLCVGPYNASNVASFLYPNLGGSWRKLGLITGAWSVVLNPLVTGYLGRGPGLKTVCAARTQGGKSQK

[2] = biological target: T1, Free fatty acid receptor 1; experiment: Agonist activity at human GPR40/FFA1 expressed in CHO cells assessed as increase in calcium flux at 1 uM by Fluo-8 AM dye based FLIPR method
[3] = biological target: T2, Free fatty acid receptor 2 (Homo sapiens) (UniProt O15552); experiment: Agonist activity at GPR43/FFA2 (unknown origin) expressed in CHO cells assessed as increase in calcium flux at 10 uM by Fluo-8 AM dye based FLIPR method
T2 sequence (whole entry): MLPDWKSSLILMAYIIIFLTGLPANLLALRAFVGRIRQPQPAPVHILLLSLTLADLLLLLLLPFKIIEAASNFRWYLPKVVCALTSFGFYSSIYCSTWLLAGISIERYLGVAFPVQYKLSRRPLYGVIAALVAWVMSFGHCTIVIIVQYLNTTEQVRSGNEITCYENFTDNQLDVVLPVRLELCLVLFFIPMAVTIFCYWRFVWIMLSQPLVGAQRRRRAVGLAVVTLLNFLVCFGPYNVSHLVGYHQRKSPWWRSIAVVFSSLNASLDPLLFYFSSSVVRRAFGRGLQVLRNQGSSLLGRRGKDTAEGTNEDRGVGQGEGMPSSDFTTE

[4] = biological target: T3, Free fatty acid receptor 3 (Homo sapiens) (UniProt O14843); experiment: Agonist activity at GPR41/FFA3 (unknown origin) expressed in CHO cells assessed as increase in calcium flux at 10 uM by Fluo-8 AM dye based FLIPR method
T3 sequence (whole entry): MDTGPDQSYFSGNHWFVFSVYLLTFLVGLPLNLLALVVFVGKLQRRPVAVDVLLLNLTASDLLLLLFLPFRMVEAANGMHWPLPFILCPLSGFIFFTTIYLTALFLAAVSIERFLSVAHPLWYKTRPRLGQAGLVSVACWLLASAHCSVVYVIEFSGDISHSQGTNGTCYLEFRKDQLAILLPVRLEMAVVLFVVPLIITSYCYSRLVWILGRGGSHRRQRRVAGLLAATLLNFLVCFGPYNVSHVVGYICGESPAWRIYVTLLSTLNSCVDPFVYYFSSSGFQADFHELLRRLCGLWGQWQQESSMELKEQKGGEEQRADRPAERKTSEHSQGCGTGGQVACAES

[5] = biological target: T4, Free fatty acid receptor 4 (Homo sapiens) (UniProt Q5NUL3); experiment: Agonist activity at GPR120/FFA4 (unknown origin) expressed in CHO cells assessed as increase in calcium flux at 10 uM by Fluo-8 AM dye based FLIPR method
T4 sequence (whole entry): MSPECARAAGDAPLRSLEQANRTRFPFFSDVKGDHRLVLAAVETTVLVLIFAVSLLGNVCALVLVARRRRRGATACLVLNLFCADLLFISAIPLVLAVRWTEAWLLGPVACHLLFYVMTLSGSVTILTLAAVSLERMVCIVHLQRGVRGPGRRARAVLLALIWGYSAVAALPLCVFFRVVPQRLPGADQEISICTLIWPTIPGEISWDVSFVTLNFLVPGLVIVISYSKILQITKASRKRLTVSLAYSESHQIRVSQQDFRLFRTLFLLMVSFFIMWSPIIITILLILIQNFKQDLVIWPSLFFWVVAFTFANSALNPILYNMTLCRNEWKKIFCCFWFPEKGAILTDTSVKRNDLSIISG

Row | Activity [1] [%] | EC50 [2] [µM] | Activity [3] | Activity [4] | Activity [5] | SMILES
1 | 9.2 | > 10 | – | – | – | COc1cccc(NC(=O)c2nnc(C(=O)Nc3ccc(OCC(=O)O)cc3)s2)c1
2 | 2.8 | > 10 | – | – | – | Cc1ccc(NC(=O)c2nnc(C(=O)Nc3ccc(OCC(=O)O)cc3)s2)cc1C
3 | 6.4 | > 10 | – | – | – | CCOC(=O)c1cccc(NC(=O)c2nnc(C(=O)Nc3ccc(OCC(=O)O)cc3)s2)c1
4 | 4.2 | > 10 | – | – | – | O=C(O)COc1ccc(NC(=O)c2nnc(C(=O)Nc3ccc(Cl)cc3)s2)cc1
5 | 6 | > 10 | – | – | – | O=C(O)COc1ccc(NC(=O)c2nnc(C(=O)Nc3ccc(F)cc3)s2)cc1
6 | 74.4 | 1.17 | inactive | inactive | inactive | CCc1ccc(OCc2nnc(C(=O)Nc3ccc(CCC(=O)O)cc3)s2)cc1
7 | 6 | > 10 | – | – | – | Cc1cccc(NC(=O)c2nnc(C(=O)Nc3ccc(OCC(=O)O)cc3)s2)c1
8 | 78.9 | 1.35 | inactive | inactive | inactive | COc1ccc(C(Cc2nnc(C(=O)Nc3ccc(CCC(=O)O)cc3)s2)c2ccccc2)cc1 (centres undefined)
9 | 6.6 | > 10 | – | – | – | Cc1cccc(NC(=O)c2nnc(C(=O)Nc3ccc(OCC(=O)O)cc3)s2)c1C
10 | 6.6 | > 10 | – | – | – | O=C(O)COc1ccc(NC(=O)c2nnc(C(=O)Nc3ccc(F)cc3F)s2)cc1
11 | 7 | > 10 | – | – | – | Cc1ccc(NC(=O)c2nnc(C(=O)Nc3ccc(OCC(=O)O)cc3)s2)cc1
12 | 82.9 | 1.57 | inactive | inactive | inactive | O=C(O)CCc1ccc(NC(=O)c2nnc(COc3cccc(Cl)c3)s2)cc1
13 | 64.9 | 1.13 | inactive | inactive | inactive | Cc1ccc(OCc2nnc(C(=O)Nc3ccc(CCC(=O)O)cc3)s2)cc1C
14 | 9.4 | > 10 | – | – | – | CCOC(=O)c1ccc(NC(=O)c2nnc(C(=O)Nc3ccc(OCC(=O)O)cc3)s2)cc1
15 | 74.7 | 2.54 | inactive | inactive | inactive | Cc1ccc(OCc2nnc(C(=O)Nc3ccc(CCC(=O)O)cc3)s2)c(C)c1
16 | 76.9 | 2.17 | inactive | inactive | inactive | Cc1ccc(OCc2nnc(C(=O)Nc3ccc(CCC(=O)O)cc3)s2)cc1
17 | 91.2 | 1.38 | inactive | inactive | inactive | O=C(O)CCc1ccc(NC(=O)c2nnc(COc3ccc4c(c3)CCC4)s2)cc1
18 | 9.8 | > 10 | – | – | – | Cc1nnc(NC(=O)c2nnc(C(=O)Nc3ccc(OCC(=O)O)cc3)s2)s1
19 | 60.3 | 4.12 | inactive | inactive | inactive | O=C(O)CCc1ccc(NC(=O)c2nnc(CC(c3ccccc3)c3ccc4c(c3)OCO4)s2)cc1 (centres undefined)

Row | Activity [1] [%] | EC50 [2] [µM] | Activity [3] | Activity [4] | Activity [5] | SMILES
20 | 70.1 | 3.09 | inactive | inactive | inactive | O=C(O)CCc1ccc(NC(=O)c2nnc(COc3cccc(C(F)(F)F)c3)s2)cc1
21 | 7.8 | > 10 | – | – | – | O=C(O)COc1ccc(NC(=O)c2nnc(C(=O)Nc3ccccc3)s2)cc1
22 | 84.9 | 2.71 | inactive | inactive | inactive | O=C(O)CCc1ccc(NC(=O)c2nnc(CC(c3ccccc3)c3ccc(Cl)cc3)s2)cc1 (centres undefined)
23 | 6.6 | > 10 | – | – | – | Cc1ccccc1NC(=O)c1nnc(C(=O)Nc2ccc(OCC(=O)O)cc2)s1
24 | 48.5 | 5.39 | inactive | inactive | inactive | O=C(O)CCc1ccc(NC(=O)c2nnc(COc3ccc(F)cc3)s2)cc1
25 | 68.6 | 1.02 | inactive | inactive | inactive | O=C(O)CCc1ccc(NC(=O)c2nnc(CC(c3ccccc3)c3ccccc3F)s2)cc1 (centres undefined)
26 | 89.9 | 1.52 | inactive | inactive | inactive | Cc1ccccc1OCc1nnc(C(=O)Nc2ccc(CCC(=O)O)cc2)s1
27 | 60.3 | 5.02 | inactive | inactive | inactive | O=C(O)CCc1ccc(NC(=O)c2nnc(Cc3cccc(F)c3)s2)cc1
28 | 6.6 | > 10 | – | – | – | O=C(O)COc1ccc(NC(=O)c2nnc(C(=O)Nc3ccc(F)c(F)c3)s2)cc1
29 | 70.1 | 3.67 | inactive | inactive | inactive | O=C(O)CCc1ccc(NC(=O)c2nnc(Cc3ccccc3)s2)cc1
30 | 5.9 | > 10 | – | – | – | O=C(O)COc1ccc(NC(=O)c2nnc(C(=O)Nc3ccc(Br)cc3)s2)cc1
31 | 6.6 | > 10 | – | – | – | COc1ccc(C)cc1NC(=O)c1nnc(C(=O)Nc2ccc(OCC(=O)O)cc2)s1
32 | 6 | > 10 | – | – | – | O=C(O)COc1ccc(NC(=O)c2nnc(C(=O)Nc3ccccc3F)s2)cc1
33 | 79.4 | 2.39 | inactive | inactive | inactive | O=C(O)CCc1ccc(NC(=O)c2nnc(Cc3cccc(Cl)c3)s2)cc1
34 | 82.4 | 3.26 | inactive | inactive | inactive | Cc1cccc(OCc2nnc(C(=O)Nc3ccc(CCC(=O)O)cc3)s2)c1
35 | 88.2 | 1.53 | inactive | inactive | inactive | Cc1ccc(C)c(OCc2nnc(C(=O)Nc3ccc(CCC(=O)O)cc3)s2)c1
36 | 72.3 | 2.39 | inactive | inactive | inactive | O=C(O)CCc1ccc(NC(=O)c2nnc(Cc3ccc(Cl)cc3)s2)cc1
37 | 72.5 | 2.43 | inactive | inactive | inactive | COc1ccc(OCc2nnc(C(=O)Nc3ccc(CCC(=O)O)cc3)s2)cc1
